Test results as given in patent US5753617A, “Peptide inhibitors of cellular adhesion” (Centocor, Inc., priority 1995, dated 1998).
pIC50: −log10 of the molar value. Where a SMILES comes first, the peptide text is derived from it. Bridges are numbered along the chain shown (N, C = ends). [ ]: non-standard residue; d: D form. Phe(4-Cl) = N[C@@H](Cc1ccc(Cl)cc1)C(=O)O

Each molecule was assayed against T1, P-selectin (Homo sapiens, UniProt P16109) (assay: Inhibition of human neutrophil adhesion to purified P-selectin immobilized on plastic wells). Conditions: inhibiting the binding of human neutrophils to P-selectin.
T1 construct: P-selectin is isolated from human platelet lysates; from tissue; host or cells: human platelets (outdated platelet packs from a blood bank)
T1 sequence (P16109 42-830): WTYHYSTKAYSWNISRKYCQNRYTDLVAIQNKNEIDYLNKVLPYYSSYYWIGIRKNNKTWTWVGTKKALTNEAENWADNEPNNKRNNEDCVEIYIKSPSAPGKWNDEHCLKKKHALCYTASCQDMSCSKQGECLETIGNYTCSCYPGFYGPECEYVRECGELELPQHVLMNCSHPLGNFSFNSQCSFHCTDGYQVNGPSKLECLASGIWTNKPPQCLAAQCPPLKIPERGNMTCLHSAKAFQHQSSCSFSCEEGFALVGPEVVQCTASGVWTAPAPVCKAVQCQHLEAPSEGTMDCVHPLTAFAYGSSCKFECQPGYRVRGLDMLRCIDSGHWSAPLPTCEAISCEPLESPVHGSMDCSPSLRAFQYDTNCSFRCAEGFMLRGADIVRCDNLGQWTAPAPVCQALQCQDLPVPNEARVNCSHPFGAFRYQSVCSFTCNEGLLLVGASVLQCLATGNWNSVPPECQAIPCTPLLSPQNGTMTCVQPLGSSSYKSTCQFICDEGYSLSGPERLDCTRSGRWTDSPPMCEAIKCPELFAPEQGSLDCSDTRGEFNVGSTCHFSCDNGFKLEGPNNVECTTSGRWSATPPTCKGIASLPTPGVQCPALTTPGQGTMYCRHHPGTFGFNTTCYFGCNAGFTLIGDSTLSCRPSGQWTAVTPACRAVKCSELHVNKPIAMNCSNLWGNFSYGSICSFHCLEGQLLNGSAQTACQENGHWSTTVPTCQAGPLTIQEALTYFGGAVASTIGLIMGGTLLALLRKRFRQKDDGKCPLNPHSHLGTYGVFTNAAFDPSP
Assay type: cell-based
In short: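 Isolated human neutrophils (2×10^5 per well) in HBSS with Ca2+/Mg2+ and HSA added to wells coated overnight at 4° C with platelet-derived P-selectin (5 micrograms/mL), HSA-blocked; 20 min at 22° C. Nonadherent cells removed by inverted centrifugation at 150 g; adherent cells quantified by myeloperoxidase activity.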
CC(C)[C@@H](NC(=O)[C@@H](Cc1c[nH]c2ccccc12)NC(=O)[C@@H](NC(=O)[C@@H](Cc1c[nH]c2ccccc12)NC(=O)[C@H]1CSSC[C@@H](NC(=O)[C@@H](CCCCN)NC(=O)[C@H](N)CCCNC(=N)N)C(=O)NCC(=O)N[C@@H](Cc2ccccc2)C(=O)N1)[C@@H](C)O)C(N)=O [(98)] (H-[dR][dK][dC]GF[dC][dW]T[dW][dV]-NH2; disulfide 3-6) gave a pIC50 of 4.54. Work on CC(C)[C@@H](NC(=O)[C@@H](Cc1c[nH]c2ccccc12)NC(=O)[C@H](NC(=O)[C@H](Cc1c[nH]c2ccccc12)NC(=O)[C@H]1CSSC[C@@H](NC(=O)[C@@H](CCCCN)NC(=O)[C@H](N)CCCNC(=N)N)C(=O)NCC(=O)N[C@@H](Cc2ccccc2)C(=O)N1)[C@H](C)O)C(N)=O [(99)] (H-[dR][dK][dC]GF[dC]W[dT][dW][dV]-NH2; disulfide 3-6) yielded a pIC50 of 5.51. With CC(C)[C@@H](NC(=O)[C@@H](CCC(N)=O)NC(=O)[C@H](NC(=O)[C@@H](Cc1ccc(O)cc1)NC(=O)[C@H]1CSSC[C@@H](NC(=O)[C@@H](CCCCN)NC(=O)[C@H](N)CCCNC(=N)N)C(=O)NCC(=O)N[C@@H](Cc2ccccc2)C(=O)N1)[C@H](C)O)C(N)=O [(100)] (H-[dR][dK][dC]GF[dC][dY][dT][dQ][dV]-NH2; disulfide 3-6) the pIC50 was 4.05. Molecule CC(C)[C@@H](NC(=O)[C@@H](Cc1c[nH]c2ccccc12)NC(=O)[C@H](NC(=O)[C@@H](Cc1c[nH]c2ccccc12)NC(=O)[C@H]1CSSC[C@@H](NC(=O)[C@@H](CCCCN)NC(=O)[C@@H](N)CCCNC(=N)N)C(=O)NCC(=O)N[C@@H](Cc2ccccc2)C(=O)N1)[C@H](C)O)C(N)=O [(101)] (H-R[dK][dC]GF[dC][dW][dT][dW][dV]-NH2; disulfide 3-6) has a pIC50 of 4.47. In the case of CC(=O)N[C@H](CCCCN)C(=O)N[C@@H]1CSSC[C@H](C(=O)N[C@H](Cc2c[nH]c3ccccc23)C(=O)N[C@@H](C(=O)N[C@H](Cc2c[nH]c3ccccc23)C(=O)N[C@@H](C(N)=O)C(C)C)[C@H](C)O)NC(=O)[C@H](Cc2ccc(O)cc2)NC(=O)CNC1=O [(104)] (Ac-[dK][dC]GY[dC][dW][dT][dW][dV]-NH2; disulfide 2-5), the pIC50 was 3.72. With C[C@H](O)[C@H]1NC(=O)[C@@H](Cc2c[nH]c3ccccc23)NC(=O)[C@H]2CSSC[C@@H](NC(=O)[C@H](NC(=O)[C@H](N)CCCNC(=N)N)CCCCNC(=O)CC[C@H](C(N)=O)NC(=O)[C@@H](Cc3c[nH]c4ccccc34)NC1=O)C(=O)NCC(=O)N[C@@H](Cc1ccccc1)C(=O)N2 [(105)] (H-[dR][dK][dC]GF[dC][dW][dT][dW][dE]-NH2; lactam 2-10; disulfide 3-6; N-terminus assumed) the pIC50 was 4.01. Work on CC(C)[C@@H](NC(=O)[C@@H](Cc1c[nH]c2ccccc12)NC(=O)[C@H]1CCC(=O)NCCCC[C@@H](NC(=O)[C@H](N)CCCNC(=N)N)C(=O)N[C@@H]2CSSC[C@@H](NC(=O)[C@H](Cc3ccccc3)NC(=O)CNC2=O)C(=O)N[C@H](Cc2c[nH]c3ccccc23)C(=O)N1)C(N)=O [(106)] (H-[dR][dK][dC]GF[dC][dW][dE][dW][dV]-NH2; lactam 2-8; disulfide 3-6; N-terminus assumed) yielded a pIC50 of 5.10. CC[C@@H](C)[C@@H](NC(=O)[C@@H](CCCCN)NC(=O)[C@H](N)CCCNC(=N)N)C(=O)NCC(=O)N[C@@H]1CSSC[C@H](C(=O)N[C@H](Cc2c[nH]c3ccccc23)C(=O)N[C@@H](C(N)=O)C(C)C)NC(=O)[C@@H](Cc2c[nH]c3ccccc23)NC(=O)[C@@H]([C@H](C)CC)NC1=O [(107)] (H-[dR][dK][dI]G[dC][dI][dW][dC][dW][dV]-NH2; disulfide 5-8) was tested, and the pIC50 was 5.10. With CC[C@@H](C)[C@@H](NC(=O)[C@@H](CCCCN)NC(=O)[C@H](N)CCCNC(=N)N)C(=O)NCC(=O)N[C@@H]1CSSC[C@H](C(=O)N[C@@H](C(=O)N[C@@H](C(N)=O)C(C)C)[C@H](C)O)NC(=O)[C@@H](Cc2c[nH]c3ccccc23)NC(=O)[C@@H]([C@H](C)CC)NC1=O [(108)] (H-[dR][dK][dI]G[dC][dI][dW][dC][dT][dV]-NH2; disulfide 5-8) the pIC50 was 4.62. CC[C@@H](C)[C@@H](NC(=O)CNC(=O)[C@H]1CSSC[C@@H](N)C(=O)N[C@H](CCCCN)C(=O)N[C@H]([C@H](C)CC)C(=O)N1)C(=O)N[C@H](Cc1c[nH]c2ccccc12)C(=O)N[C@@H](C(=O)N[C@H](Cc1c[nH]c2ccccc12)C(=O)N[C@@H](C(N)=O)C(C)C)[C@H](C)O [(109)] (H-[dC][dK][dI][dC]G[dI][dW][dT][dW][dV]-NH2; disulfide 1-4) showed a pIC50 of 4.47. Molecule CC(C)[C@@H](NC(=O)[C@@H](Cc1c[nH]c2ccccc12)NC(=O)[C@H](NC(=O)[C@@H](Cc1c[nH]c2ccccc12)NC(=O)[C@H]1CSSC[C@@H](NC(=O)[C@@H](C)NC(=O)[C@H](N)CCCNC(=N)N)C(=O)NCC(=O)N[C@@H](Cc2ccccc2)C(=O)N1)[C@H](C)O)C(N)=O [(110)] (H-[dR][dA][dC]GF[dC][dW][dT][dW][dV]-NH2; disulfide 3-6) has a pIC50 of 4.28. CC(C)[C@@H](NC(=O)[C@@H](Cc1c[nH]c2ccccc12)NC(=O)[C@H](NC(=O)[C@@H](Cc1c[nH]c2ccccc12)NC(=O)[C@H]1CSSC[C@@H](NC(=O)[C@@H](CCC(N)=O)NC(=O)[C@H](N)CCCNC(=N)N)C(=O)NCC(=O)N[C@@H](Cc2ccccc2)C(=O)N1)[C@H](C)O)C(N)=O [(111)] (H-[dR][dQ][dC]GF[dC][dW][dT][dW][dV]-NH2; disulfide 3-6) gave a pIC50 of 4.74. CC(C)[C@@H](NC(=O)[C@@H](Cc1c[nH]c2ccccc12)NC(=O)[C@H](NC(=O)[C@@H](Cc1c[nH]c2ccccc12)NC(=O)[C@H]1CSSC[C@@H](NC(=O)[C@@H](CCC(=O)O)NC(=O)[C@H](N)CCCNC(=N)N)C(=O)NCC(=O)N[C@@H](Cc2ccccc2)C(=O)N1)[C@H](C)O)C(N)=O [(112)] (H-[dR][dE][dC]GF[dC][dW][dT][dW][dV]-NH2; disulfide 3-6) showed a pIC50 of 3.63. In the case of CC(C)[C@@H](NC(=O)[C@@H](Cc1c[nH]c2ccccc12)NC(=O)[C@H](NC(=O)[C@@H](Cc1c[nH]c2ccccc12)NC(=O)[C@@H]1CSSC[C@H](NC(=O)[C@@H](CCCCN)NC(=O)[C@H](N)CCCNC(=N)N)C(=O)NCC(=O)NCC(=O)N1)[C@H](C)O)C(N)=O [(113)] (H-[dR][dK]CGGC[dW][dT][dW][dV]-NH2; disulfide 3-6), the pIC50 was 6.15. In the case of CC(C)[C@@H](NC(=O)[C@@H](Cc1c[nH]c2ccccc12)NC(=O)[C@H](NC(=O)[C@@H](Cc1c[nH]c2ccccc12)NC(=O)[C@H]1CSSC[C@@H](NC(=O)[C@@H](CCCCN)NC(=O)[C@H](N)CCCNC(=N)N)C(=O)N[C@H](CCC(N)=O)C(=O)N[C@@H](CCC(N)=O)C(=O)N1)[C@H](C)O)C(N)=O [(114)] (H-[dR][dK][dC][dQ]Q[dC][dW][dT][dW][dV]-NH2; disulfide 3-6), the pIC50 was 4.92. Molecule CC(C)[C@@H](NC(=O)[C@@H](Cc1c[nH]c2ccccc12)NC(=O)[C@H](NC(=O)[C@@H](Cc1c[nH]c2ccccc12)NC(=O)[C@H]1CSSC[C@@H](NC(=O)[C@@H](CCCCN)NC(=O)[C@H](N)CCCNC(=N)N)C(=O)NCC(=O)N[C@@H](Cc2ccc(Cl)cc2)C(=O)N1)[C@H](C)O)C(N)=O [(115)] (H-[dR][dK][dC]G[Phe(4-Cl)][dC][dW][dT][dW][dV]-NH2; disulfide 3-6) has a pIC50 of 5.82. In the case of CC(C)[C@@H](NC(=O)[C@@H](Cc1c[nH]c2ccccc12)NC(=O)[C@H](NC(=O)[C@@H](Cc1c[nH]c2ccccc12)NC(=O)[C@H]1CSSC[C@@H](NC(=O)[C@@H](CCCCN)NC(=O)[C@H](N)CCCNC(=N)N)C(=O)NCC(=O)N[C@H](C(C)C)C(=O)N1)[C@H](C)O)C(N)=O [(116)] (H-[dR][dK][dC]G[dV][dC][dW][dT][dW][dV]-NH2; disulfide 3-6), the pIC50 was 5.34. CC(C)[C@@H](NC(=O)[C@@H](Cc1c[nH]c2ccccc12)NC(=O)[C@H](NC(=O)[C@@H](Cc1c[nH]c2ccccc12)NC(=O)[C@H]1CSSC[C@@H](NC(=O)[C@@H](CCCCN)NC(=O)[C@H](N)CC(=O)O)C(=O)NCC(=O)N[C@@H](Cc2ccccc2)C(=O)N1)[C@H](C)O)C(N)=O [(117)] (H-[dD][dK][dC]GF[dC][dW][dT][dW][dV]-NH2; disulfide 3-6) was tested, and the pIC50 was 3.62. In the case of CC[C@H](C)[C@@H]1NC(=O)[C@H](CCCCN)NC(=O)[C@@H](N)CCC(=O)NCCCC[C@@H](C(=O)N[C@@H](Cc2c[nH]c3ccccc23)C(=O)N[C@H](C(=O)N[C@@H](Cc2c[nH]c3ccccc23)C(=O)N[C@H](C(N)=O)C(C)C)[C@@H](C)O)NC(=O)CNC(=O)CNC1=O [Preferred peptide (1), Cyclo(glutamyl-lysyl-isoleucyl-glycyl-glycyl-lysyl)-tryptophyl-threonyl-tryptophyl-valine-amide] (H-EKIGGKWTWV-NH2; lactam 1-6), the pIC50 was 3.94.
